Experimental data reported in US20210283163A1, “COMPOSITIONS AND METHODS FOR THE TREATMENT OF ACUTE AND CHRONIC PRURITIS” (Duke University, priority 2018, published 2021).

What was measured:
Type in all cases: cell-based
TRPV4 = molecular target: T1, TRPV4 (Mus musculus, UniProt Q9EPK8); experiment: Whole-cell patch clamp in CHO cells transfected with mouse Trpv4 cDNA; settings: miR-711 10 μM; GSK1016790A 1 μM
T1 construct: expressed in transfected cells; host or cells: CHO cells (ATCC CRL-9096), plasmid pcDNA3.1-mTrpv4, a gift from Korea University
Protocol: (§1) Constructs. The cDNAs of mouse pcDNA3.1-Trpa1, pcDNA3.1-Trpv1, pcDNA3.1-Trpv2, pcDNA3.1-Trpv3, and pcDNA3.1-Trpv4 were kindly provided Dr. Sun Work Hwang from Korea University. Mouse Trpa1 cDNA was subcloned into pCGN-HA backbone (Addgene) using In-Fusion HD Cloning Kit (Clontech Laboratories, CA). Q5 Site-Directed Mutagenesis Kit was used to generate mTrpa1 mutant (M1-M13) based on pCGN-mTrpa1.
(§2) Cell Culture and Transfection. CD4^+ Myla cell line was cultured in RPMI 1640 media (GIBCO), supplemented with 2 mM Glutamine (GIBCO), 100 U/mL IL-2 (Sigma), 100 U/mL IL-4 (Sigma), and 10% human AB serum (Sigma). HuT 102 cell line was cultured in RPMI 1640 supplemented with pyruvate, HEPES, and 10% (v/v) fetal bovine serum (HyClone). HEK293-hTRPA1 stable cell line was cultured in MEM (GIBCO) containing 2 mM Glutamine, 4 μg/mL Blasticidin, 10% FBS (v/v). B16 and CHO cells were cultured in high glucose (4.5 g/L) Dulbecco's Modified Eagle's Medium (GIBCO) containing 10% (v/v) fetal bovine serum (GIBCO). Culture media were supplemented with 50 units/mL of penicillin and 50 μg/mL streptomycin, and cultures were maintained with 5% CO2 in 37° C. incubator. Transfection (2 μg cDNA) was performed with Lipofectamine™ 2000 Reagent (Invitrogen) at 80% confluency and the transfected cells were cultured in the same media for 48 hr before electrophysiological and biochemical studies. […]

calcium channels = experiment: Calcium current recording in mouse DRG neurons; settings: 10 μM, 1 min
Protocol: To test the effects of miR-711 on calcium channels, calcium currents were recorded in mouse DRG neurons (Andrade et al., Nat. Neurosci. 2010, 13, 1249-1256). Calcium current was evoked by a 40-ms step depolarization to −10 mV from the holding potential of −80 mV, using i) external solution (mM): 135 mM TEA-C1, 1 mM CaCl2, 10 mM HEPES, 4 mM MgCl2 and 0.1 μM TTX, adjusted to a pH of 7.4 with TEA-OH, and ii) the pipette solution: 126 mM CsCl, 5 mM Mg-ATP, 10 mM EGTA and 10 mM HEPES, adjusted to a pH of 7.3 with CsOH.

TRPV3 = molecular target: T2, TRPV3 (Mus musculus, UniProt Q8K424); experiment: Whole-cell patch clamp in CHO cells transfected with mouse Trpv3 cDNA; settings: miR-711 10 μM; carvacrol 300 μM
T2 construct: expressed in transfected cells; host or cells: CHO cells (ATCC CRL-9096), plasmid pcDNA3.1-mTrpv3, a gift from Korea University
T2 sequence (Q8K424 1-791): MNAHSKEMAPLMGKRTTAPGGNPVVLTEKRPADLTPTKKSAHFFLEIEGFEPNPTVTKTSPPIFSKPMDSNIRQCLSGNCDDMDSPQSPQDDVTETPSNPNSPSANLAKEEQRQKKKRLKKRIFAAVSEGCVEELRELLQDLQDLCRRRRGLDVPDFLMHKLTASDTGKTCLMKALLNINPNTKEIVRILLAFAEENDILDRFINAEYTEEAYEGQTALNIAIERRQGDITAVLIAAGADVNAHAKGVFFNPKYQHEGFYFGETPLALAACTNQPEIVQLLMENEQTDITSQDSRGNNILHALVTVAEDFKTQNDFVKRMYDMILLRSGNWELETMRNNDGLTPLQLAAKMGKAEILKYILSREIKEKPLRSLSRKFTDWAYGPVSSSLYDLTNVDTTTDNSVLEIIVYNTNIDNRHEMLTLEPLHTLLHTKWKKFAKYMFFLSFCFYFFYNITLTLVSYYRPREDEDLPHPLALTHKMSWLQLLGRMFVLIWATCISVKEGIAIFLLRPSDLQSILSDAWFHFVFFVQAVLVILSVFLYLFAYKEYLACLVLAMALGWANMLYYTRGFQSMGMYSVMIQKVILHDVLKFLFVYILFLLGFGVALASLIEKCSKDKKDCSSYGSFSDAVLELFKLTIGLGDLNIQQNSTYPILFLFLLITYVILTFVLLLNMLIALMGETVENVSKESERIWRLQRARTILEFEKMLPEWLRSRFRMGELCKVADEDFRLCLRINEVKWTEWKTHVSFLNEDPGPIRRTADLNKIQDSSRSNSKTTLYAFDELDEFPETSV
Protocol: as §1, §2

T1 sequence (Q9EPK8 whole entry): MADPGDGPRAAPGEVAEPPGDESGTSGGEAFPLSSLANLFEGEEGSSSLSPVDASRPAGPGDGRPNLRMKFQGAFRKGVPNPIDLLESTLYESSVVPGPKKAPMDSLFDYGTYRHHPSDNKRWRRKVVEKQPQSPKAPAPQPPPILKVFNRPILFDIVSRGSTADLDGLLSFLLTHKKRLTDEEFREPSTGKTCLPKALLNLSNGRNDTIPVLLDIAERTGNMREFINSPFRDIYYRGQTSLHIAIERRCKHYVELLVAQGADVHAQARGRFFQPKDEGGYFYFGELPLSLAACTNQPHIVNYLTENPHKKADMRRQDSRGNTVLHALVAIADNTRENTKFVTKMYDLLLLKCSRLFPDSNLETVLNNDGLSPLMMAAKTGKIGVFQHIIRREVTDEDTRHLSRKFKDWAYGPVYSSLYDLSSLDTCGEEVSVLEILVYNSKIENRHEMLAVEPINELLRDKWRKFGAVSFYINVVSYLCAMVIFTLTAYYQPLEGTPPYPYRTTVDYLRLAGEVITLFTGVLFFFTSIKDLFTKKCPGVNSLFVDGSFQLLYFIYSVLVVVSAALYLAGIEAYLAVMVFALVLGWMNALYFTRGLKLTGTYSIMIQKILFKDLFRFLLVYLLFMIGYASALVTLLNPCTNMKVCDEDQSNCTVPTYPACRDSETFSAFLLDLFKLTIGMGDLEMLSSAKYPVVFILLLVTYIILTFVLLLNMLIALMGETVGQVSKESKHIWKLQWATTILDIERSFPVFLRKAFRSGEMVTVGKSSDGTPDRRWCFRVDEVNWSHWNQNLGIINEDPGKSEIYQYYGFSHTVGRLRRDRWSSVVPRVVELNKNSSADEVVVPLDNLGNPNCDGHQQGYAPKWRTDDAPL

miR-711: mmu-miR-711: gggacccggggagagauguaag (SEQ ID NO: 5) (GGGACCCGGGGAGAGAUGUAAG; chemistry not given here)
inward currents (TRPV4): failed to trigger inward currents
calcium currents in DRG neurons (calcium channels): did not alter calcium currents
inward currents (TRPV3): failed to trigger inward currents
